Measurements published in patent publication US12012412B2, “Solid forms of pyrazolo[3,4-d]pyrimidine compounds” (Pfizer Inc., priority 2021, dated 2024).
Converted amounts (≈) assume the structure as drawn. One block for each molecule: values may come before it.

Legend:
Format in all cases: physicochemical
[1] = Particle size of batches of Solid Form A; details: batches of Solid Form A, milled or unmilled per batch
Excerpt: Primary particles from below 100 μm to around 500 μm in size, with soft agglomerates up to several millimeters, were observed. The D[4,3] of this material was 195 μm. This material was subsequently milled, to give far fewer large particles and an overall much smaller average primary particle size, giving a D[4,3] of 49.5 μm. See Table 8 for a comparison of particle size properties of various batches.

[2] = Solubility of Solid Form A and amorphous Compound X in various solvents at room temperature
[3] = True density of Solid Form A; details: lots of Solid Form A; A2 and A9 unmilled, A3 and A6/A7 milled
[4] = Mechanical properties of batches of Solid Form A; details: lots of Solid Form A; A2 and A9 unmilled, A3 and A6/A7 milled

Compound: CC1CN(Cc2ncccn2)CC1c1nc2c(cnn2C2CCOCC2)c(=O)[nH]1 (stereo not drawn) [A8]
- Particle size D[4, 3] [1]: 48.6 μm
- Particle size D[v, 0.1] [1]: 3.96 µm
- Particle size D[v, 0.9] [1]: 118 µm

Compound: CC1CN(Cc2ncccn2)CC1c1nc2c(cnn2C2CCOCC2)c(=O)[nH]1 (stereo not drawn) [A10]
- Particle size D[4, 3] [1]: 49.5 μm
- Particle size D[v, 0.1] [1]: 3.29 µm
- Particle size D[v, 0.9] [1]: 129 µm

Compound: CC1CN(Cc2ncccn2)CC1c1nc2c(cnn2C2CCOCC2)c(=O)[nH]1 (stereo not drawn) [A5]
- Particle size D[4, 3] [1]: 89.2 μm
- Particle size D[v, 0.1] [1]: 6.86 µm
- Particle size D[v, 0.9] [1]: 197 µm

Compound: CC1CN(Cc2ncccn2)CC1c1nc2c(cnn2C2CCOCC2)c(=O)[nH]1 (stereo not drawn) [A4]
- Particle size D[4, 3] [1]: 24.1 μm
- Particle size D[v, 0.1] [1]: 4.39 µm
- Particle size D[v, 0.9] [1]: 52.5 µm

Compound: CC1CN(Cc2ncccn2)CC1c1nc2c(cnn2C2CCOCC2)c(=O)[nH]1 (stereo not drawn) [A3]
- True density (g/cm3), Value [3]: 1.29 g/cm3
- Brittle fracture index, Rating [4]: Low
- Brittle fracture index, Value [4]: 0.139
- Brittle/viscoelastic bonding index (x105), Value [4]: 8.44
- Brittle/viscoelastic bonding index, Rating [4]: Marginal
- Compression stress (MPa), Value [4]: 67.9 MPa
- Compression stress, Rating [4]: Moderate
- Compromised Tensile strength (MPa), Value [4]: 0.488 MPa
- Solid fraction, Value [4]: 0.857
- Tensile strength (MPa), Value [4]: 0.624 MPa
- Tensile strength, Rating [4]: Moderate
- Particle size D[4, 3] [1]: 60.2 μm
- Particle size D[v, 0.1] [1]: 10.5 µm
- Particle size D[v, 0.9] [1]: 126 µm

Compound: CC1CN(Cc2ncccn2)CC1c1nc2c(cnn2C2CCOCC2)c(=O)[nH]1 (stereo not drawn) [A6]
- Particle size D[4, 3] [1]: 78.6 μm
- Particle size D[v, 0.1] [1]: 5.89 µm
- Particle size D[v, 0.9] [1]: 179 µm
- Particle size D[4, 3] ([1]; listed as A7): 85.1 μm
- Particle size D[v, 0.1] ([1]; listed as A7): 6.17 µm
- Particle size D[v, 0.9] ([1]; listed as A7): 191 µm

Now from value to molecule:

- Solubility (mg/ml) ([2]; 1,2-Xylene): 19.9 mg/mL (≈ 50.3 mM)
- Solubility (mmol) ([2]; 1,2-Xylene): 50 mmol
- Solubility (mmol) ([2]; Acetone): >202 mmol
- Solubility (mg/ml) ([2]; Chloroform): >92.3 mg/mL
- Solubility (mmol) ([2]; Chloroform): >233 mmol
- Solubility (mg/ml) ([2]; Dioxane): 27.9 mg/mL (≈ 70.5 mM)
- Solubility (mmol) ([2]; Dioxane): 71 mmol
- Solubility (mg/ml) ([2]; EtOAc): 20.6 mg/mL (≈ 52.1 mM)
- Solubility (mmol) ([2]; EtOAc): 52 mmol
- Solubility (mg/ml) ([2]; EtOH): >98.6 mg/mL
- Solubility (mmol) ([2]; EtOH): >249 mmol
- Solubility (mg/ml) ([2]; Glyme (1,2-Dimethoxyethane)): >113.2 mg/mL
- Solubility (mmol) ([2]; Glyme (1,2-Dimethoxyethane)): >286 mmol
- Solubility (mg/ml) ([2]; H2O (Water)): 64.8 mg/mL (≈ 164 mM)
- Solubility (mmol) ([2]; H2O (Water)): 164 mmol
- Solubility (mg/ml) ([2]; H2O-EtOH (Water/EtOH)): >26.8 mg/mL
- Solubility (mmol) ([2]; H2O-EtOH (Water/EtOH)): >68 mmol
- Solubility (mg/ml) ([2]; H2O-MeCN (Water/MeCN)): >75.6 mg/mL
- Solubility (mmol) ([2]; H2O-MeCN (Water/MeCN)): >191 mmol
- Solubility (mg/ml) ([2]; H2O-MeOH (Water/MeOH)): >42.5 mg/mL
- Solubility (mmol) ([2]; H2O-MeOH (Water/MeOH)): >107 mmol
- Solubility (mg/ml) ([2]; H2O-acetone (Water/acetone)): >130.3 mg/mL
- Solubility (mmol) ([2]; H2O-acetone (Water/acetone)): >329 mmol
- Solubility (mg/ml) ([2]; Heptane): 0.7 mg/mL (≈ 1.77 mM)
- Solubility (mmol) ([2]; Heptane): 2 mmol
- Solubility (mg/ml) ([2]; IPA): >85.9 mg/mL
- Solubility (mmol) ([2]; IPA): >217 mmol
- Solubility (mg/ml) ([2]; MTBE): 11.2 mg/mL (≈ 28.3 mM)
- Solubility (mmol) ([2]; MTBE): 28 mmol
- Solubility (mg/ml) ([2]; MeCN): >117.3 mg/mL
- Solubility (mmol) ([2]; MeCN): >297 mmol
- Solubility (mg/ml) ([2]; MeOH): >90.2 mg/mL
- Solubility (mmol) ([2]; MeOH): >228 mmol
- Solubility (mg/ml) ([2]; Nitromethane): >70.2 mg/mL
- Solubility (mmol) ([2]; Nitromethane): >178 mmol
- Solubility (mg/ml) ([2]; THF): 81.5 mg/mL (≈ 206 mM)
- Solubility (mmol) ([2]; THF): 206 mmol
- Solubility (mg/ml) ([2]; Toluene): 18.3 mg/mL (≈ 46.3 mM)
- Solubility (mmol) ([2]; Toluene): 46 mmol
- solubility ([2]; acetone, organic solvent or mixture): > 79.7 mg/mL
Compound: C[C@@H]1CN(Cc2ncccn2)C[C@H]1c1nc2c(cnn2C2CCOCC2)c(=O)[nH]1 [amorphous Compound X, 6-((3S,4S)-4-methyl-1-(pyrimidin-2-ylmethyl)pyrrolidin-3-yl)-1-(tetrahydro-2H-pyran-4-yl)-1,5-dihydro-4H-pyrazolo[3,4-d]pyrimidin-4-one]

- True density (g/cm3), Value [3]: 1.29 g/cm3
- Brittle fracture index, Rating [4]: Very low
- Brittle fracture index, Value [4]: −0.077
- Brittle/viscoelastic bonding index (x105), Value [4]: 1.95
- Brittle/viscoelastic bonding index, Rating [4]: Poor
- Compression stress (MPa), Value [4]: 52.5 MPa
- Compression stress, Rating [4]: Moderate
- Compromised Tensile strength (MPa), Value [4]: 0.302 MPa
- Dynamic indentation hardness (MPa), Value [4]: 63.6 MPa
- Dynamic indentation hardness [ductility rating], Rating [4]: High
- Solid fraction, Value [4]: 0.85
- Tensile strength (MPa), Value [4]: 0.255 MPa
- Tensile strength, Rating [4]: Very low
- Worst case bonding index (x102), Value [4]: 0.401
- Worst case bonding index, Rating [4]: Moderate
- Particle size D[4, 3] [1]: 195 μm
- Particle size D[v, 0.1] [1]: 20.6 µm
- Particle size D[v, 0.9] [1]: 362 µm
Compound: CC1CN(Cc2ncccn2)CC1c1nc2c(cnn2C2CCOCC2)c(=O)[nH]1 (stereo not drawn) [A9]

- True density (g/cm3), Value [3]: 1.29 g/cm3
- Brittle fracture index, Rating [4]: Low
- Brittle fracture index, Value [4]: 0.022
- Brittle/viscoelastic bonding index (x105), Value [4]: 5.3
- Brittle/viscoelastic bonding index, Rating [4]: Poor
- Compression stress (MPa), Value [4]: 56.3 MPa
- Compression stress, Rating [4]: Moderate
- Compromised Tensile strength (MPa), Value [4]: 0.393 MPa
- Dynamic indentation hardness (MPa), Value [4]: 41.6 MPa
- Dynamic indentation hardness [ductility rating], Rating [4]: Very high
- Solid fraction, Value [4]: 0.85
- Tensile strength (MPa), Value [4]: 0.41 MPa
- Tensile strength, Rating [4]: Low
Compound: CC1CN(Cc2ncccn2)CC1c1nc2c(cnn2C2CCOCC2)c(=O)[nH]1 (stereo not drawn) [A6/A7]

- True density (g/cm3), Value [3]: 1.28 g/cm3
- Brittle fracture index, Rating [4]: Low
- Brittle fracture index, Value [4]: 0.0486
- Brittle/viscoelastic bonding index (x105), Value [4]: 2.61
- Brittle/viscoelastic bonding index, Rating [4]: Poor
- Compression stress (MPa), Value [4]: 58.8 MPa
- Compression stress, Rating [4]: Moderate
- Compromised Tensile strength (MPa), Value [4]: 0.274 MPa
- Solid fraction, Value [4]: 0.87
- Tensile strength (MPa), Value [4]: 0.3 MPa
- Tensile strength, Rating [4]: Low
- Particle size D[4, 3] [1]: 144 μm
- Particle size D[v, 0.1] [1]: 45.6 µm
- Particle size D[v, 0.9] [1]: 247 µm
Compound: CC1CN(Cc2ncccn2)CC1c1nc2c(cnn2C2CCOCC2)c(=O)[nH]1 (stereo not drawn) [A2]
